From patent publication EP1019392B1, “TRICYCLIC AMIDES USEFUL FOR INHIBITION OF G-PROTEIN FUNCTION AND FOR TREATMENT OF PROLIFERATIVE DISEASES” (SCHERING CORPORATION, priority 1995, dated 1997)
Where two headings read alike, the source gives them in different places.

Assays:
[1] = test system: T24-BAG4 human bladder carcinoma cells expressing an activated H-ras gene; assay: Cell Mat Assay, T24 tumor cells; format: cell-based; settings: read-out: Tumor (T-24) IC50
[2] = test system: DLD-1-BAG human colon carcinoma cells expressing as activated K-ras gene; assay: Cell Mat Assay, DLD-1 tumor cells; format: cell-based
[3] = test system: SW620-BAG human colon carcinoma cells expressing an activated K-ras gene; assay: Cell Mat Assay, SW620 tumor cells; format: cell-based; settings: Mat assay
[4] = test system: Normal human HEPM fibroblasts; assay: Cell Mat Assay, normal cell mat; format: cell-based; settings: normal monolayer
[5] = molecular target: T1, farnesyl protein transferase (FPT) (Rattus norvegicus, UniProt Q02293+Q04631); assay: In vitro enzyme assay: inhibition of farnesyl protein transferase (transfer of [3H]farnesyl to Ras-CVLS); format: biochemical; settings: partially purified rat brain FPT, Ras-CVLS
T1 construct: were partially purified from rat brain by ammonium sulfate fractionation followed by Q-Sepharose; from tissue; host or cells: rat brain
Protocol: • 1. In vitro enzyme assays: Inhibition of farnesyl protein transferase and geranylgeranyl protein transferase. […] Human farnesyl protein transferase was also expressed in E. coli, using cDNA clones encoding both the a and b subunits. […] Human farnesyl protein transferase was partially-purified from the soluble protein fraction of E. coli as described above. […] Two forms of val^12-Ha-Ras protein were prepared as substrates for these enzymes, differing in their carboxy terminal sequence. One form terminated in cysteine-valine-leucine-serine (Ras-CVLS) the other in cystein-valine-leucine-leucine (Ras-CVLL). Ras-CVLS is a substrate for the farnesyl protein transferase while Ras-CVLL is a substrate for geranylgeranyl protein transferase I. The cDNAs encoding these proteins were constructed so that the proteins contain an amino-terminal extension of 6 histidine residues. Both proteins were expressed in Escherichia coli and purified using metal chelate affinity chromatography. The radiolabelled isoprenyl pyrophosphate substrates, [^3H]farnesyl pyrophosphate and [^3H]geranylgeranyl pyrophosphate, were purchased from DuPont/New England Nuclear. […] The reaction was allowed to proceed for 30 minutes at room temperature and then stopped with 0.5 ml of 4% sodium dodecyl sulfate (SDS) followed by 0.5 ml of cold 30% TCA. Samples were allowed to sit on ice for 45 minutes and precipitated Ras protein was then collected on GF/C filter paper mats using a Brandel cell harvester. […] Percent inhibition was calculated relative to the DMSO vehicle control. The geranylgeranyl protein transferase I assay was essentially identical to the farnesyl protein transferase assay described above, with two exceptions: [^3H]geranylgeranylpyrophosphate replaced farnesyl pyrophosphate as the isoprenoid donor and Ras-CVLL was the protein acceptor. […] Cell-Based Assay: Transient expression of val^12-Ha-Ras-CVLS and val^12-Ha-Ras-CVLL in COS monkey kidney cells: Effect of farnesyl protein transferase inhibitors on Ras processing and on disordered cell growth induced by transforming Ras. COS monkey kidney cells were transfected by electroporation with the plasmid pSV-SPORT (Gibco/BRL) containing a cDNA insert encoding either Ras-CVLS or Ras-CVLL, leading to transient overexpression of a Ras substrate for either farnesyl protein transferase or geranylgeranyl protein transferase I, respectively (see above). Following electroporation, cells were plated into 6-well tissue culture dishes containing 1.5 ml of Dulbecco's-modified Eagle's media (GIBCO, Inc.) supplemented with 10% fetal calf serum and the appropriate farnesyl protein transferase inhibitors. After 24 hours, media was removed and fresh media containing the appropriate drugs was re-added. 48 hours after electroporation cells were examined under the microscope to monitor disordered cell growth induced by transforming Ras. Cells expressing transforming Ras become more rounded and refractile and overgrow the monolayer, reminiscent of the transformed phenotype. Cells were then photographed, washed twice with 1 ml of cold phosphate-buffered saline (PBS) and removed from the dish by scraping with a rubber policeman into 1 ml of a buffer containing 25 mM Tris, pH 8.0; 1 mM ethylenediamine tetraacetic acid; 1 mM phenylmethylsulfonyl fluoride; […] leupeptin; and 0.1 mM pepstatin. Cells were lysed by homogenization and cell debris was removed by centrifugation at 2000 x g for 10 min. Cellular protein was precipitated by addition of ice-cold trichloroacetic acid and redissolved in […] of SDS-electrophoresis sample buffer. […] Proteins resolved on the gels were electroblotted onto nitrocellulose membranes for immunodetection. […] After washing, membranes were incubated for one hour at room temperature with a 1:5000 dilution of secondary antibody, rabbit anti-rat IgG conjugated to horseradish peroxidase, in PBS containing 1% fetal calf serum.

[6] = test system: Ras-CVLS processing in COS monkey kidney cells; assay: COS cell assay: inhibition of Ras-CVLS processing (Western blot); format: cell-based
Description: • 1. In vitro enzyme assays: Inhibition of farnesyl protein transferase and geranylgeranyl protein transferase. Both farnesyl protein transferase (FPT) and geranylgeranyl protein transferase (GGPT) I were partially purified from rat brain by ammonium sulfate fractionation followed by Q-Sepharose (Pharmacia, Inc.) anion exchange chromatography essentially as described by Yokoyama et al (Yokoyama, K., et al., (1991), A protein geranylgeranyltransferase from bovine brain: Implications for protein prenylation specificity, Proc. Natl. Acad. Sci USA 88: 5302-5306, the disclosure of which is incorporated herein by reference thereto). Human farnesyl protein transferase was also expressed in E. coli, using cDNA clones encoding both the a and b subunits. The methods used were similar to those published (Omer, C. et al., (1993), Characterization of recombinant human farnesyl protein transferase: Cloning, expression, farnesyl diphosphate binding, and functional homology with yeast prenyl-protein transferases, Biochemistry 32:5167-5176). Human farnesyl protein transferase was partially-purified from the soluble protein fraction of E. coli as described above. […] Two forms of val^12-Ha-Ras protein were prepared as substrates for these enzymes, differing in their carboxy terminal sequence. One form terminated in cysteine-valine-leucine-serine (Ras-CVLS) the other in cystein-valine-leucine-leucine (Ras-CVLL). Ras-CVLS is a substrate for the farnesyl protein transferase while Ras-CVLL is a substrate for geranylgeranyl protein transferase I. The cDNAs encoding these proteins were constructed so that the proteins contain an amino-terminal extension of 6 histidine residues. Both proteins were expressed in Escherichia coli and purified using metal chelate affinity chromatography. The radiolabelled isoprenyl pyrophosphate substrates, [^3H]farnesyl pyrophosphate and [^3H]geranylgeranyl pyrophosphate, were purchased from DuPont/New England Nuclear. Several methods for measuring farnesyl protein transferase activity have been described (Reiss et al 1990, Cell 62: 81; Schaber et al 1990, J. Biol. Chem. 265: 14701; Manne et al 1990, PNAS 87: 7541; and Barbacid & Manne 1993, U.S. Patent No. 5,185,248). […] The reaction was allowed to proceed for 30 minutes at room temperature and then stopped with 0.5 ml of 4% sodium dodecyl sulfate (SDS) followed by 0.5 ml of cold 30% TCA. Samples were allowed to sit on ice for 45 minutes and precipitated Ras protein was then collected on GF/C filter paper mats using a Brandel cell harvester. Filter mats were washed once with 6% TCA, 2% SDS and radioactivity was measured in a Wallac 1204 Betaplate BS liquid scintillation counter. Percent inhibition was calculated relative to the DMSO vehicle control. The geranylgeranyl protein transferase I assay was essentially identical to the farnesyl protein transferase assay described above, with two exceptions: [^3H]geranylgeranylpyrophosphate replaced farnesyl pyrophosphate as the isoprenoid donor and Ras-CVLL was the protein acceptor. […] Cell-Based Assay: Transient expression of val^12-Ha-Ras-CVLS and val^12-Ha-Ras-CVLL in COS monkey kidney cells: Effect of farnesyl protein transferase inhibitors on Ras processing and on disordered cell growth induced by transforming Ras. COS monkey kidney cells were transfected by electroporation with the plasmid pSV-SPORT (Gibco/BRL) containing a cDNA insert encoding either Ras-CVLS or Ras-CVLL, leading to transient overexpression of a Ras substrate for either farnesyl protein transferase or geranylgeranyl protein transferase I, respectively (see above). Following electroporation, cells were plated into 6-well tissue culture dishes containing 1.5 ml of Dulbecco's-modified Eagle's media (GIBCO, Inc.) supplemented with 10% fetal calf serum and the appropriate farnesyl protein transferase inhibitors. After 24 hours, media was removed and fresh media containing the appropriate drugs was re-added.

[7] = test system: DLD-1 (human colon carcinoma cells, ATCC # CCL 221); assay: In Vivo Anti-Tumor Studies, subcutaneous DLD-1 tumors; parameters: species or system athymic nu/nu female mice; settings: Mus musculus, DLD-1, po, QID, 4 weeks, range over the listed compounds
Description: Tumor cells (5 X 10^5 to 8 X 10^6) of DLD-1 (human colon carcinoma cells, ATCC # CCL 221) are innolculated subcutaneously into the flank of 5-6 week o;d athymic nu/nu female mice.

With `NC(=O)N1CCC(CC(=O)N2CCC(C3c4ncc(Br)cc4CCc4cc(Cl)cc(Br)c43)CC2)CC1` (stereo not shown) [Example 10B] the IC50 [1] was less than 1600 nM, the IC50 ([2]; Mat assay) was 1600 nM and the IC50 [3] was 1600 nM. It also gave an IC50 [4] greater than 25000 nM.
`NC(=O)N1CCC(CC(=O)N2CCC([C@@H]3c4ncc(Br)cc4CCc4cc(Cl)cc(Br)c43)CC2)CC1` [Example 10A] gave an IC50 [1] of less than 1600 nM, an IC50 [3] of 1600 nM and an IC50 [4] of 8000 nM.
With `O=C(Cc1cc[n+]([O-])cc1)N1CCN(C2c3ncc(Br)cc3CCc3cc(Cl)cc(F)c32)CC1` (stereo not shown) [Example 21] the IC50 ([5]; Table 1, read-out: FPT IC50) was 8.4 nM and the IC50 ([6]; Primates, COS) was 420 nM.
Compound `O=C(Cc1cc[n+]([O-])cc1)N1CCC(=C2c3ncc(Br)cc3CCc3cc(Cl)cc(Br)c32)CC1` (single isomer, unassigned) [Example 7A] has an IC50 [1] of less than 1600 nM, an IC50 ([5]; FPT IC50, Table 1) greater than 100 nM and an IC50 [4] greater than 25000 nM. For the same compound, the IC50 [6] was greater than 1000 nM, the inhibition in vivo at 10 mg/kg ([7]; 10 mg/kg p.o.) was 7 to 50% and the inhibition in vivo at 50 mg/kg ([7]; 50 mg/kg p.o.) was 35.4 to 83%.
For `O=C(Cc1cc[n+]([O-])cc1)N1CCN([C@@H]2c3ncc(Br)cc3CCc3cc(Cl)cc(Br)c32)CC1` [Example 11B], the IC50 [1] was less than 1600 nM, the IC50 ([2]; Mat assay) was 8000 nM and the IC50 ([5]; Table 1, read-out: FPT IC50) was greater than 95 nM. It also gave an IC50 [3] of 18000 nM and an IC50 [4] greater than 25000 nM.
Compound `O=C(Cc1cc[n+]([O-])cc1)N1CCC(C2c3ncc(Br)cc3CCc3cc(Cl)cc(Br)c32)CC1` (single isomer, unassigned) [Example 9A] has an IC50 ([1]; Homo sapiens) of less than 1600 nM and an IC50 ([6]; Primates, COS) of 850 nM.
With `O=C(Cc1cc[n+]([O-])cc1)N1CCN(C2c3ncc(Br)cc3CCc3cc(Cl)cc(Br)c32)CC1` (racemic) [Example 11] the IC50 ([5]; Table 1, read-out: FPT IC50) was 2 nM and the IC50 ([6]; Primates, COS) was less than 250 nM.
In the case of `O=C(Cc1cc[n+]([O-])cc1)N1CCC(C2c3ncc(Br)cc3CCc3cc(Cl)cc(Br)c32)CC1` (stereo not shown) [Example 9B], the IC50 ([5]; FPT IC50, Table 1) is reported as 3 nM.
With `NC(=O)N1CCC(CC(=O)N2CCC(C3c4ccc(Cl)c(Br)c4CCc4cc(Br)cnc43)CC2)CC1` (single isomer, unassigned) [Example 13A] the IC50 ([2]; Homo sapiens, DLD-1, Mat assay) was 6250 nM, the IC50 [3] was 6250 nM and the IC50 [6] was greater than 1000 nM.
